# From PMC10029296, “Glepaglutide, a novel glucagon-like peptide-2 agonist, has anti-inflammatory and mucosal regenerative effects in an experimental model of inflammatory bowel disease in rats” (BMC Gastroenterology, 2023)
# No end group written: not given here.
# Tests used:
# [1] = test system: male Wistar rats; settings: rat, in vivo
# Method: In this study, a dose of INDO 7 mg/kg was used based on the results of an INDO-induced small intestinal inflammation model validation study conducted by Zealand Pharma.
# [2] = test system: male Wistar rats; assay: INDO-induced small intestinal inflammation model validation study (INDO dose finding); settings: data not shown
# [3] = test system: Wistar rats with INDO-induced small intestinal inflammation; assay: INDO-induced small intestinal inflammation model, co- and post-treatment; type: in vivo, rat; settings: 400 nmol/kg SC twice daily
# Method: Two treatment regimens were studied: glepaglutide (400 nmol/kg, SC, twice daily) was administered in a co-treatment regimen (Fig. 1B – administered at inflammation onset and throughout), and a post-treatment regimen (Fig. 1C – administered after inflammation onset and throughout).
# Two groups of controls, INDO controls (administered with INDO and treated with vehicle) and controls (administered with saline solution and treated with vehicle), were included in the studies (Fig. 1B and C). Groups of rats (n = 7–15) were sacrificed during the active inflammation phase (2–3 days after inflammation onset), on day 3 for the co-treatment regimen (Fig. 1B) and on day 4 for the post-treatment regimen (Fig. 1C), to determine small intestinal length, jejunal and ileal mass, and α-1-acid glycoprotein (α-1-AGP) and myeloperoxidase (MPO) concentrations in the jejunum and ileum. Equivalent groups of rats were sacrificed during the body weight recovery phase (14–15 days after inflammation onset), on day 14 for the co-treatment regimen (Fig. 1B), and on day 16 for the post-treatment regimen (Fig. 1C), to determine jejunal and ileal mass. Body weight and survival were recorded daily.
# (§1) Animals were anesthetized with carbon dioxide and then sacrificed by cervical dislocation. The small intestine (from the pylorus to the ileocecal junction) was dissected away from the abdomen and the surrounding mesenteric fat. Small intestinal length was measured after weighing the small intestine with a 1 g weight to obtain uniform tension. Thereafter, the small intestine was divided into two segments of equal length labeled as the jejunum and ileum. Segments were gently flushed with 0.9% saline, padded dry, and weighed. A 5 cm biopsy was collected 10 cm distal from the start of the jejunal segment, and another 5 cm biopsy was collected 10 cm distal from the start of the ileal segment. The biopsies were immediately frozen in liquid nitrogen and stored at -80 °C for later analysis of concentrations of α-1-AGP and MPO using commercially available enzyme-linked immunosorbent assay kits (Life Diagnostics [2510–2] and Hycult Biotech [HK 210], respectively). The preparation method was validated in house.
# Data are presented as mean ± standard error of the mean, unless otherwise stated. The intestinal growth-promoting effect of glepaglutide in naive rats was determined using a two-way analysis of variance (ANOVA, dose and time), and significant findings were further analyzed with the Bonferroni post hoc test. In the INDO model, a t-test was used to compare INDO control-treated rats with vehicle control-treated rats, and INDO control-treated rats with glepaglutide-treated rats. A p value of ≤ 0.05 was considered statistically significant. Grubbs’ test was used to test for outliers in the section, and outliers were not included in the analyses. Differences in survival between different groups were compared by the Cox–Mantel log-rank test.
# [4] = test system: naive Wistar rats; assay: Intestinotrophic effect in naive rats; type: in vivo, rat; settings: 80 and 400 nmol/kg SC once daily for 7 days, vs vehicle, 400 vs 80 nmol/kg p < 0.05
# Method: Glepaglutide (80 nmol/kg or 400 nmol/kg, SC, once daily) or vehicle (SC, once daily) were administered for 14 days to naive Wistar rats to assess the intestinotrophic properties of the peptide, before initiating studies in the small intestinal inflammation model (Fig. 1A). Overall, 18 rats were included per arm, with 6 rats each sacrificed on day 0, day 7, and day 14.
# as §1, with “The biopsies were immediately frozen in liquid nitrogen and stored at -80 °C for later analysis of concentrations of α-1-AGP and MPO using commercially available enzyme-linked immunosorbent assay kits (Life Diagnostics [2510–2] and Hycult Biotech [HK 210], respectively). The preparation method was validated in house.” left out
# Data are presented as mean ± standard error of the mean, unless otherwise stated. The intestinal growth-promoting effect of glepaglutide in naive rats was determined using a two-way analysis of variance (ANOVA, dose and time), and significant findings were further analyzed with the Bonferroni post hoc test. […]
# [5] = target: T1, hGLP-2R (Homo sapiens, UniProt O95838, D470N); assay: cAMP accumulation assay in HEK293 cells stably expressing hGLP-2R (AlphaScreen)
# T1 sequence (O95838 1-553 D470N): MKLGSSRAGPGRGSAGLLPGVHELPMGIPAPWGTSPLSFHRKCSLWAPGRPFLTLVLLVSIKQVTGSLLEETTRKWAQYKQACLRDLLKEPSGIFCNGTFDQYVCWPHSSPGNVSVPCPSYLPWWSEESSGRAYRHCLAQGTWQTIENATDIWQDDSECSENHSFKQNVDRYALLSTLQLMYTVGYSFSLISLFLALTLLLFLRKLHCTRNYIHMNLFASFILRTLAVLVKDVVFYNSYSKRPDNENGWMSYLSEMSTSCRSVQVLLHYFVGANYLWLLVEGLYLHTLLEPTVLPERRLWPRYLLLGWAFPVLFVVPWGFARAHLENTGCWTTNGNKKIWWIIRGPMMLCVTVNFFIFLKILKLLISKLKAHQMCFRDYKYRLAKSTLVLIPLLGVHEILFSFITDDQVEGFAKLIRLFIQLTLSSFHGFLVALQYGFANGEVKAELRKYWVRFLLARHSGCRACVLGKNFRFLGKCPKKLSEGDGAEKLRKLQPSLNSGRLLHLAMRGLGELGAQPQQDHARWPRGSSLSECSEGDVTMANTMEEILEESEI
# Method: For assaying, HEK293 cells stably expressing hGLP-2R were seeded at 30,000 cells per well in 96-well microtiter plates coated with 0.01% poly-L-lysine. […] The reaction was stopped by decanting off the compound/buffer and replacing it with 80 µl lysis/detection buffer consisting of deionized water supplemented with 0.1% w/v BSA (Sigma-Aldrich A9430), 5 mM HEPES, and 0.3% v/v Tween-20 (Sigma-Aldrich P7949).
# Compound potency (EC50) and maximal effect (Emax) values were estimated by computer-aided curve fitting using a three-parameter logistic non-linear model.
# [6] = test system: patients with moderate to severe CD; settings: 8 weeks of treatment, failed to reach statistical significance; cited from earlier work
# Excerpt: Use of GLP-2 agonists for the treatment of IBD is not a novel concept. The ability of teduglutide to induce remission or to reduce the Crohn’s disease activity index (CDAI) score by at least 100 points after 8 weeks of treatment was examined in patients with moderate to severe CD [37]. […] We speculate that the study was underpowered and that the assessment of mucosal healing, rather than the CDAI, would have been a better endpoint to assess the effect of ...
# [7] = co-treatment, body weight recovery phase (day 14), vs INDO controls
# [8] = post-treatment, active inflammation phase (day 4), ELISA, vs INDO controls, p < 0.01
# [9] = post-treatment, body weight recovery phase (day 16), vs INDO controls
compound,measurement,setting,value
"COc1ccc2c(c1)c(CC(=O)O)c(C)n2C(=O)c1ccc(Cl)cc1 [INDO, indomethacin]","Induction of inflammation, INDO 3 mg/kg",[1],insufficient for inducing inflammation
same,"Induction of macroscopic features of inflammation, INDO 7 mg/kg",[1],sufficient and appropriate
same,"Mortality, INDO 15 mg/kg",[2],exaggerated mortality
HGEGTFSSELATILDALAARDFIAWLIATKITDKKKKKK-NH2 (C-terminus assumed) [Glepaglutide],"Ileal MPO concentration, co-treatment","[3]; co-treatment, active inflammation phase (day 3), ELISA, vs INDO controls, p < 0.001",significantly decreased
same,"Ileal α-1-AGP concentration, co-treatment","[3]; co-treatment, active inflammation phase (day 3), ELISA, vs INDO controls, p < 0.05",significantly decreased
same,"Small intestinal shortening (small intestinal length), co-treatment","[3]; co-treatment, active inflammation phase (day 3), vs INDO controls, p < 0.001",reversed
same,"Ileal mass, co-treatment, active inflammation phase","[3]; co-treatment, active inflammation phase, vs INDO controls, p < 0.05",significantly increased
same,"Ileal mass, co-treatment, body weight recovery phase",[3]; [7],significantly increased
same,"Jejunal mass, co-treatment, body weight recovery phase",[3]; [7],significantly increased
same,"Acute body weight loss, co-treatment","[3]; co-treatment, vs INDO controls, p < 0.001, data not shown",significantly decreased
same,"Ileal α-1-AGP concentration, post-treatment",[3]; [8],significantly decreased
same,"Jejunal α-1-AGP concentration, post-treatment",[3]; [8],significantly decreased
same,"Jejunal MPO concentration, post-treatment","[3]; post-treatment, active inflammation phase (day 4), ELISA, vs INDO controls, p < 0.05",significantly decreased
same,"Small intestinal shortening (small intestinal length), post-treatment","[3]; post-treatment, active inflammation phase (day 4), vs INDO controls, p = 0.05",significantly reversed
same,"Ileal mass, post-treatment, body weight recovery phase",[3]; [9],significantly increased
same,"Jejunal mass, post-treatment, body weight recovery phase",[3]; [9],significantly increased
same,"Acute body weight loss, post-treatment","[3]; post-treatment, data not shown",no effect
same,"Small intestinal mass, day 7",[4],dose-dependently increased
same,"Emax ± SEM, agonism of hGLP-2R (cAMP accumulation)","[5]; response normalized to a saturating concentration of hGLP-2 and baseline cAMP of unstimulated receptor, mean ± SEM, n = 5",102 ± 3.7
HGEGTFSSELATILDALAARDFIAWLIATKITDKKKKKK-NH2 [Glepaglutide],Survival,"[3]; co- and post-treatment regimens, Cox–Mantel log-rank test",no effect
same,EC50,[5]; SEM,0.0933 nM
[Gly^2]GLP-2 [teduglutide],Effect on CDAI score,[6],"positive, dose-dependent effect"
